The source of these data is publication PMC6010122 (Journal of Enzyme Inhibition and Medicinal Chemistry, 2017).

Read-outs that look alike come from different tables or passages of the source.

The subject of data set [1] is K562 cells. Description: Cellular antiproliferation assay (CCK-8), K562. The class given is cell-based. The conditions noted are these: Homo sapiens, read-out: Antiproliferation IC50, K562.
The subject of data set [2] is K562R (Q252H) cells. Description: Cellular antiproliferation assay (CCK-8), imatinib-resistant K562R (Q252H). The conditions noted are these: Homo sapiens, K-562R, read-out: Antiproliferation IC50, K562R (Q252H). The class given is cell-based.
The subject of data set [3] is U937 cells. Description: Cellular antiproliferation assay (CCK-8), U937. The class given is cell-based. The following applies: Homo sapiens, read-out: Antiproliferation IC50, U937.
Data set [4] has as its system MOLT-4 cells. Description: Cellular antiproliferation assay (CCK-8), MOLT-4. The class given is cell-based. The following applies: Homo sapiens, read-out: Antiproliferation IC50, MOLT-4.
Data set [5] concerns Ba/F3^WT cells. Description: Cellular antiproliferation assay (CCK-8), Ba/F3 expressing Bcr-Abl^WT. The class given is cell-based, murine. The conditions noted are these: Mus musculus, read-out: Antiproliferation IC50, Ba/F3^WT.
Data set [6] has as its target Bcr-Abl^WT (Homo sapiens, UniProt P00519). The format is biochemical.
Data set [7] relates to K562 xenograft. The following applies: mouse, in vivo, po, 10 mg/kg/day.
For data set [8], the system named is activation of Bcr-Abl, Crkl and STAT5 in K562 CML cells. Description: Western blot of Bcr-Abl signaling in K562 cells. The format is cell-based, human. The following applies: 4.0 h treatment. How it is done:
The Western blot analysis was carried out by following the protocol described previously. Briefly, after the indicated treatment, cell lysates were collected, dissolving cells in 1× SDS sample lysis buffer. After being sonicated and boiled, the supernatant of the cell lysate was used for Western blot analysis. Cell lysates were loaded to 8–12% SDS-PAGE and separated by electrophoresis. Separated proteins were then electrically transferred to a PVDF film. After being blocked with 1× TBS containing 0.1% Tween-20, and 5% nonfat milk, the film was incubated with corresponding primary antibody followed by HRP-conjugated secondary antibody. The protein lanes were visualized using ECL Western Blotting Detection Kit (GE Healthcare, Piscataway, NJ).
Figure 3. […] Cells were treated with GZD856 at the indicated concentrations for 4.0 h, and whole cell lysates were then subjected to Western blot analyses. The results represent three independent experiments.
Background: A western blot detects proteins with antibodies after separation by electrophoresis.

Data set [9] concerns K562 xenograft. Description: Subcutaneous K562 xenograft model of human CML. Background: A xenograft is tissue or cells of one species grown in another, often human tumour cells in immunodeficient mice.
The subject of data set [10] is Ba/F3^T315I cells. The class given is cell-based, murine. The conditions noted are these: Mus musculus, read-out: Antiproliferation IC50, Ba/F3^T315I.
The test system of data set [11] is HFL-1 (human embryonic lung fibroblasts). Further details: method as in PMID 26940138. The conditions noted are these: human embryonic lung fibroblasts ref 26; read-out: Antiproliferative IC50, HFL-1 non-cancer cells; cited from earlier work.

Chain of Bcr-Abl^WT (P00519 27-1130): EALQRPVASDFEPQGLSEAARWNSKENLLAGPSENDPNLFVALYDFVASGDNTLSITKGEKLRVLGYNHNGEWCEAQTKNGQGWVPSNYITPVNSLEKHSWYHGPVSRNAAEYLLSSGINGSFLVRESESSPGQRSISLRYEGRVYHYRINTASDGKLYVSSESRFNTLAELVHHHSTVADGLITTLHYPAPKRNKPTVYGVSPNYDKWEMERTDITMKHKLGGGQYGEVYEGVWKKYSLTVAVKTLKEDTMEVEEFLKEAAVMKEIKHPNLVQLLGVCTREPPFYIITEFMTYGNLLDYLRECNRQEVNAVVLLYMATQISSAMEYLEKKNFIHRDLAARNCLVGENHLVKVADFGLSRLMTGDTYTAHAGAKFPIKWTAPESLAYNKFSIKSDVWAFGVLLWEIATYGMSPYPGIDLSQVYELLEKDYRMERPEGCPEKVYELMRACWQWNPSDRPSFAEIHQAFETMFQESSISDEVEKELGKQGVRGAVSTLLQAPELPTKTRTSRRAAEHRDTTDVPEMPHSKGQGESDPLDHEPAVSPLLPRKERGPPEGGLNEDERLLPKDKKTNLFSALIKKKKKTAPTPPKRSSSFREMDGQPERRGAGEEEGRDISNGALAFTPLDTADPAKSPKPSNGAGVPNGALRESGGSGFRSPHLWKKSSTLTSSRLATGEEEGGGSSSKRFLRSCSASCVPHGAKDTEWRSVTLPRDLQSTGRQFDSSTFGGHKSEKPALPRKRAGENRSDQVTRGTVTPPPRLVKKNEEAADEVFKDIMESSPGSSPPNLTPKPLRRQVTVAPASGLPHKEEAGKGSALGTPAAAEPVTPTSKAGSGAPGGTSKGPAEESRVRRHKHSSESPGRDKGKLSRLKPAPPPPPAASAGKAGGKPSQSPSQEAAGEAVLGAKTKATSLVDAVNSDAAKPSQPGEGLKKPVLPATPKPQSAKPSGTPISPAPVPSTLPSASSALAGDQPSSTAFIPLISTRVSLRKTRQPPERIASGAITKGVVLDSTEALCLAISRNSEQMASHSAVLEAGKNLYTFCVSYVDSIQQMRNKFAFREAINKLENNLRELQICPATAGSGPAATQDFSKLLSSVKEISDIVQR

For the molecule `CC(=O)O[C@H]1C(=O)[C@@]2(C)[C@H]([C@H](OC(=O)c3ccccc3)[C@]3(O)C[C@H](OC(=O)[C@H](O)[C@@H](NC(=O)c4ccccc4)c4ccccc4)C(C)=C1C3(C)C)[C@]1(OC(C)=O)CO[C@@H]1C[C@@H]2O` [Taxol], the IC50 was 5.1 nM in data set [1] (K562, CCK-8, 72 h); 7 nM in [2] (CCK-8, 72 h); 2.3 nM in data set [3] (U-937, CCK-8, 72 h, negative for Bcr-Abl expression); 2.7 nM in data set [4] (MOLT-4, CCK-8, 72 h, negative for Bcr-Abl expression).
As for `Cc1ccc(C(=O)Nc2ccc(CN3CCN(C)CC3)c(C(F)(F)F)c2)cc1C#Cc1cnc2ccnn2c1` [GZD856, 4-Methyl-N-(4-((4-methylpiperazin-1-yl)methyl)-3-(trifluoromethyl)phenyl)-3-(pyrazolo[1,5-a]pyrimidin-6-ylethynyl)benzamide], the IC50 is 2.2 nM in [1] (K562, CCK-8, 72 h); 67 nM in [2] (CCK-8, 72 h); 0.64 nM in [5] (BaF3, CCK-8, 72 h); 19.9 nM in data set [6]; 10.8 nM in [10] (BaF3, CCK-8, 72 h); 6780 nM in data set [11]. Besides, the Tolerability during treatment entry in data set [7] is given as “well tolerated with no mortality”. Moreover, the “Suppression of activation of Bcr-Abl and downstream Crkl and STAT5” value in data set [8] is on record as “efficiently suppressed the activation”. The “Body loss relative to vehicle-matched controls” value in data set [9] (K562 xenograft mice, oral 10 mg/kg/day, during the treatment) was less than 5%. Further, the “Tumor recurrence after cessation of treatment” value in [9] (K562 xenograft, 10 mg/kg/day, 16 days of dosing, following 7 days) is recorded as “no sign of tumor recurrence”. Moreover, the “Antitumor effect on tumor” value in [9] (K562 xenograft, oral 10 mg/kg/day, after 8 days of treatment) was “almost completely eradicated the tumor”.
On to `Cc1ccc(NC(=O)c2ccc(CN3CCN(C)CC3)cc2)cc1Nc1nccc(-c2cccnc2)n1` [Imatinib, imatinib], for which the “Antitumor effect on tumor” value in [9] (K562 xenograft, oral 50 mg/kg/day) is reported as “only induced tumor stasis”.
Turning to `Cc1ccc(C(=O)Nc2ccc(CN3CCN(C)CC3)c(C(F)(F)F)c2)cc1C#Cc1cnc2cccnn12` [Ponatinib, 3-[2-(imidazo[1,2-b]pyridazin-3-yl)ethynyl]-4-methyl-N-{4-[(4-methyl-piperazin-1-yl)methyl]-3-(trifluoromethyl)phenyl}benzamide], the IC50 in [1] (K562, 72 h) was found to be 0.5 nM; in data set [3] (U-937, 72 h), 1 nM; in data set [4] (MOLT-4, 72 h) it was 7.8 nM.
Consider `Cc1cn(-c2cc(NC(=O)c3ccc(C)c(Nc4nccc(-c5cccnc5)n4)c3)cc(C(F)(F)F)c2)cn1` [Nilotinib], for which the IC50 in [1] (K562, 72 h) was 6.5 nM; in data set [2] (72 h) it was 350 nM; in [3] (U-937, 72 h), 9520 nM; in data set [5] (BaF3, 72 h) it was 22 nM; in [4] (MOLT-4, 72 h), 20400 nM; in [10] (BaF3, 72 h), 1460 nM.
